Test results published in patent publication US11926826B2, “Twist signaling inhibitor compositions and methods of using the same” (City of Hope, priority 2016, dated 2024).
[iaB] = inverted abasic ribose cap; [2sU] = 2-thio-2'-deoxyuridine; d = 2'-deoxy (DNA); m = 2'-O-methyl; r = 2'-OH (RNA)

What was measured:
Ov8GFP-TWIST1 cells = test: SRB assay, cisplatin plus PI3K inhibitor LY294002; format: cell-based, human
Description: Sulphorhodamine B assays. Cells were plated at 5,000 per well in normal medium in 96 well plates (100 μL/well), n=6 per drug concentration, per condition. Cells were allowed to adhere overnight, and then cisplatin was added. Cisplatin was prepared at 2× concentration in 100 μL normal medium, and then added to cells to yield 200 μL at 1×. Following 3 day incubation with cisplatin, medium was removed and cells were fixed with 10% trichloroacetic acid (TCA, 100 μL/well) at 4° C. for 1 hr. TCA was then removed and wells were rinsed with 200 μl water and allowed to air dry 10 min. […] Plates were air dried and excess SRB adhered to the walls of the wells was removed with a cotton swab. Finally, SRB was solubilized in 10 mM Tris base (200 μL/well) and absorbance was measured at 570 nm on a SpectraMax Plus plate reader (Molecular Devices, Sunnyvale, CA). Readings for each condition were normalized to untreated wells from the same condition. Cisplatin concentrations were adjusted to fit experimental demands. […] For Akt studies, the PI3K inhibitor LY294002 was used to inhibit Akt activation (FIGS. 25A-25D), and was obtained from Cell Signaling Technology (Danvers, MA).

TWIST1 [1] = test: TWIST1 knockdown after Lipofectamine 2000 transfection of siRNA in MDA-MB-435S cells (western blot); format: cell-based, human; conditions: unmodified vs passenger-strand modified si419
Description: Transient transfection of MDA-MB-435S GFP+ffluc was carried out using LIPOFECTAMINE® 2000 (Thermo Fisher Scientific, Waltham, MA) according to the manufacturer's instructions. LIPOFECTAMINE® 2000 transfection was used to confirm the functionality of the siRNA (si419 and si494) prior to testing their efficacy with MSNs. Transfection of siRNA with MSNs was carried out by incubating the MSNs with the siRNA overnight at 4° C. while rotating the tube constantly. The mixture consisted of 7 parts MSN (diluted to 500 ng/ul in sterile PBS) to 1 part siRNA (diluted to 10 uM). The final concentration for of MSNs and siRNA applied to cells was 17.5 ng/ul and 50 nM, respectively.
Western Blot. Following siRNA treatment described above, cells were lifted from tissue culture wells with 0.25% trypsin, pelleted, and lysed in RIPA buffer. Protein concentration was determined using a BCA Assay (Thermo Fisher Scientific). A total of 30 μg of protein per lane was run on 4% stacking and 12% resolving polyacrylamide gels. Following gel electrophoresis, protein was transferred to Immobilon-P PVDF membrane (Millipore, Billerica, MA) using a Trans-Blot SD Semi-Dry Transfer Cell (Bio-Rad, Hercules, CA). Membranes were then blocked with 5% dry milk dissolved in 1×PBS with 0.1% Tween-20. Antibodies were diluted in blocking buffer (1:250 for anti-TWIST1 and 1:2,500 for anti-Actin). […]

TWIST [2] = test: TWIST knockdown after MSN delivery of siRNA in ovarian cancer cell lines; format: cell-based
Description: MSN design and delivery. Mesoporous silica nanoparticles (MSNs) were synthesized utilizing the sol-gel method as described previously. First, 250 mg 95% cetyltrimethylammonium bromide (CTAB) was dissolved in 120 ml of water with 875 μl 2M sodium hydroxide solution, at 80° C. Next, 1.2 ml of 98% tetraethylorthosilicate was added. After 15 min, 300 μl of 42% 3-(trihydroxysilyl) propyl methylphosphonate was added, and the mixture was stirred 2 hr. Particles were collected using centrifugation and washed with methanol. Acidic methanol was then used to remove any remaining CTAB surfactants. Zeta potential at 50 μg/mL was 43.75 mV [14]. All chemicals were obtained from Aldrich (St. Louis, MO). Particles were ˜120 nm in diameter, with 2.5 nm pores. Low molecular weight (1.8 kD branched polymer) polyethyleneimine (PEI) was electrostatically attached to the particle surface to provide a positive change to attract negatively charged siRNA [21]. To complex siRNA for in vitro experiments, 10 μl siRNA at 10 μM was mixed with 70 ul MSNs at 500 μg/ml and 20 μl water, and the mixture was incubated overnight at 4° C. on a roller. The following day, 100 μl of the MSN-siRNA complexes was added to each well of a 6-well plate containing 1900 μl normal medium.
(§1) Western Blotting. Following siRNA treatment, cells were pelleted and lysed in RIPA buffer. Protein concentration was determined by BCA assay (Thermo Fisher). Following SDS-PAGE, protein was transferred to Amersham PVDF membrane (Genesee Scientific) using a BioRad Trans-Blot SD semi-dry transfer unit. Blots were then blocked in milk for one hour at room temperature or overnight at 4° C. Incubation with primary antibody took place for one hour at room temperature or overnight at 4° C. Antibodies were diluted in 5% milk, with 0.1-0.2% Tween-20. Antibodies used were TWIST 2c1a (Santa Cruz Biotechnology, Dallas, TX) at 1:250-1:500 dilution, β-Actin, A1978 (Sigma Aldrich, St. Louis, MO) at 1:2500-1:5000 dilution; and Horseradish Peroxidase (HRP) conjugated anti-mouse secondary antibodies. […]

N-Cadherin mRNA = test: qPCR after YTZ3-15 delivery of siTwist in SUM 1315: N-Cadherin; format: cell-based, human; conditions: delivered via YTZ3-15; after seven days
Description: (§2) Cell Culture, Transfection, and Stable Cell Line Production. SUM 1315 breast cancer cells were obtained from ATCC (Manassas, VA). Cells were maintained at 37° C., 5% CO2, and 90% humidity in a tissue culture incubator. Media for SUM 1315 cells consisted of a 50-50 mixture of DMEM and F12 media, supplemented with 5 μg/ml insulin, 10 ng/ml EGF, 5% fetal bovine serum, and 1% penicillin/streptomycin. Cells were passaged using 0.25% trypsin (Genesee Scientific, San Diego, CA) every 2-3 days as they reached confluency. […]
(§3) Quantitative PCR. […] RNA quantity and quality was measured and analyzed (with 260/280 nm and 260/230 nm spectra measurements) using a NanoDrop ND-1000 (Thermo Fisher Scientific, Waltham, MA). […] Quantitative RT-PCR was performed in quadruplicate using Maxima SYBR Green Master Mix (Thermo Fisher Scientific, Waltham, MA) in 25 μl reactions. […] Data were analyzed using Bio-Rad iQ5 software using the 2^−ΔΔ^Ct method and normalized to Actin. […]

Vimentin mRNA = test: qPCR after YTZ3-15 delivery of siTwist in SUM 1315: Vimentin; format: cell-based, human; conditions: delivered via YTZ3-15; after one day
Description: as §2, §3

TWIST1 [3] = test: TWIST1 knockdown after Lipofectamine 2000 transfection in SUM 1315; format: cell-based, human
Description: as §2, §3
Western Blot. […] Cells were pelleted, lysed in RIPA buffer, and protein concentration was determined using the BCA Assay (Thermo Fisher Scientific, Waltham, MA). […]

TWIST [4] = test: TWIST knockdown after Lipofectamine 2000 transfection in A2780R (western blot); format: cell-based; conditions: over three days post transfection
Description: Cell Culture. A2780R and all derivatives of Ovcar8 were grown in RPMI 1640 (Genesee Scientific, San Diego, CA) in a tissue culture incubator at 37° C., 5% CO2, and 90% humidity. Growth medium was supplemented with 10% fetal bovine serum and 1% penicillin/streptomycin. Cells were passaged every 2-4 days using 0.25% trypsin (Genesee Scientific). Where indicated, cells were transfected with Lipofectamine 2000 (Thermo Fisher, Waltham, MA) according to the manufacturer's instructions. A2780R cells are a cisplatin resistant derivative of A2780.
as §1

TWIST [5] = test: TWIST knockdown after YTZ3-15 delivery of siRNA in ovarian cancer cell lines; format: cell-based
Description: PAMAM dendrimer design and delivery. The polyamidoamine (PAMAM) dendrimer used in this study is the […] third generation dendrimer, illustrated in FIG. 16A and previously described. To complex the dendrimer with siRNA, YTZ3-15 at 240 μM was mixed with […] in OptiMEM Low Serum Medium (Thermo Fisher). Upon complexing with siRNA, dendrimers form micelle structures with siRNA at the surface and the hydrophobic tails sequestered in the core (FIG. 16B). 14.6 μl YTZ3-15 and 10 μl siRNA were used per well of a 6-well plate. Final concentrations of YTZ3-15 and siRNA once added to cells were 1.75 μM and 50 nm, respectively. Where indicated, 3.5 μM YTZ3-15 and 100 nm siRNA were used for Ovcar8.
Western Blotting. Following siRNA treatment, cells were pelleted and lysed in RIPA buffer. Protein concentration was determined by BCA assay (Thermo Fisher). Following SDS-PAGE, protein was transferred to Amersham PVDF membrane (Genesee Scientific) using a BioRad Trans-Blot SD semi-dry transfer unit. Blots were then blocked in milk for one hour at room temperature or overnight at 4° C. Incubation with primary antibody took place for one hour at room temperature or overnight at 4° C. Antibodies were diluted in 5% milk, with 0.1-0.2% Tween-20. Antibodies used were TWIST 2c1a (Santa Cruz Biotechnology, Dallas, TX) at 1:250-1:500 dilution, β-Actin, A1978 (Sigma Aldrich, St. Louis, MO) at 1:2500-1:5000 dilution; and Horseradish Peroxidase (HRP) conjugated anti-mouse secondary antibodies. For film-based westerns, Blue Devil film (Genesee Scientific) and ECL Plus chemiluminescent substrate (Thermo Fisher) were used to detect protein. For digital westerns, the Syngene Pxi4 digital blot imager and Michigan Diagnostics FemtoGlow chemilumescent substrate were used.

Question: What does the source list for O=c1cc(N2CCOCC2)oc2c(-c3ccccc3)cccc12 [LY294002]?
Answer: greater cell death vs cisplatin alone (Ov8GFP-TWIST1 cells; combination with 5 μM cisplatin): 15%; greater cell death vs cisplatin alone (Ov8GFP-TWIST1 cells; combination with 10 μM cisplatin): 25%

Question: For “si419H: chemically modified si419 duplex: 2′-O-methyl and inverted abasic ribose on passenger strand (SEQ ID NO:11; guide SEQ ID NO:12) (sense GGACAAGCUGAGCAAGAUU; antisense AAUCUUGCUCAGCUUGUCCUU; siRNA; sense: sugars from the 5' end r17 m2, [iaB] at 5' end, 3' end, backbone not given here; antisense: sugars from the 5' end r16 d1 r4, [2sU] at 17, backbone not given here)”, which “knockdown (efficiency, FIG. 6)” value (TWIST1 [1]) is on record?
Answer: approximately 80%

Question: And the TWIST knockdown (TWIST [2]; Ovcar8-IP, MSNs)?
Answer: robust knockdown of TWIST even after 24 hours

Question: For “si494: anti-TWIST siRNA; passenger 5′-GCGACGAGCUGGACUCCAA-3′ (SEQ ID No: 3), guide 5′-UUGGAGUCCAGCUCGUCGCUU-3′ (SEQ ID No: 4) (listed as RNA, chemistry not fully specified)”, which “N-Cadherin mRNA decrease” value (N-Cadherin mRNA) is on record?
Answer: approximately 90%

Question: And the “Vimentin mRNA level” value (Vimentin mRNA)?
Answer: nearly undetectable

Question: And the “TWIST1 knockdown (protein and mRNA)” value (TWIST1 [3])?
Answer: slightly more knockdown than siTwistA

Question: What about the TWIST expression (TWIST [4]) of the same compound?
Answer: completely inhibit TWIST expression

Question: What about the TWIST knockdown (TWIST [5]; A2780R) of the same compound?
Answer: successfully knocked down TWIST

Question: And the TWIST knockdown (TWIST [5]; Ovcar8, double the usual dose (100 nM siRNA))?
Answer: minimal

Question: What about the TWIST knockdown (TWIST [2]; A2780R and Ovcar8, loaded onto MSNs) of the same compound?
Answer: robust TWIST knockdown lasting one week post transfection
